Results reported in PubChem BioAssay AID1259407 (Chemical Carcinogenesis Research Information System (CCRIS), 2018).
The source made the active and inactive calls. How the calls were made is not given here.

Test system: CCRIS mutagenicity, Ames/micronucleus/aberration tests
Experiment: CCRIS mutagenicity studies
[1] = Test System: AMES SALMONELLA TYPHIMURIUM, Strain/Indicator: TA98, Metabolic Activation: NONE, Method: PREINCUBATION
[2] = Test System: AMES SALMONELLA TYPHIMURIUM, Strain/Indicator: TA100, Metabolic Activation: NONE, Method: PREINCUBATION
[3] = Test System: AMES SALMONELLA TYPHIMURIUM, Strain/Indicator: TA1535, Metabolic Activation: NONE, Method: PREINCUBATION
[4] = Test System: AMES SALMONELLA TYPHIMURIUM, Strain/Indicator: TA1537, Metabolic Activation: NONE, Method: PREINCUBATION
[5] = Test System: AMES SALMONELLA TYPHIMURIUM, Strain/Indicator: TA98, Metabolic Activation: NONE, Method: STANDARD PLATE
[6] = Test System: AMES SALMONELLA TYPHIMURIUM, Strain/Indicator: TA100, Metabolic Activation: NONE, Method: STANDARD PLATE
[7] = Test System: AMES SALMONELLA TYPHIMURIUM, Strain/Indicator: TA98, Metabolic Activation: RAT, LIVER, S-9, AROCLOR 1254 (10%), Method: PREINCUBATION
[8] = Test System: AMES SALMONELLA TYPHIMURIUM, Strain/Indicator: TA100, Metabolic Activation: RAT, LIVER, S-9, AROCLOR 1254 (10%), Method: PREINCUBATION
[9] = Test System: AMES SALMONELLA TYPHIMURIUM, Strain/Indicator: TA100, Metabolic Activation: S-9, Method: STANDARD PLATE

Measured: mutagenic call

CC(CO)(CO)CO
inactive: [1] inactive; negative | Test System: AMES SALMONELLA TYPHIMURIUM, Strain/Indicator: TA98, Metabolic Activation: RAT LIVER S-9, PHENOBARBITAL AND BETA-NAPHTHOFLAVONE, Method: PREINCUBATION inactive; negative | [2] inactive; negative | Test System: AMES SALMONELLA TYPHIMURIUM, Strain/Indicator: TA100, Metabolic Activation: RAT LIVER S-9, PHENOBARBITAL AND BETA-NAPHTHOFLAVONE, Method: PREINCUBATION inactive; negative | [3] inactive; negative | Test System: AMES SALMONELLA TYPHIMURIUM, Strain/Indicator: TA1535, Metabolic Activation: RAT LIVER S-9, PHENOBARBITAL AND BETA-NAPHTHOFLAVONE, Method: PREINCUBATION inactive; negative | [4] inactive; negative | Test System: AMES SALMONELLA TYPHIMURIUM, Strain/Indicator: TA1537, Metabolic Activation: RAT LIVER S-9, PHENOBARBITAL AND BETA-NAPHTHOFLAVONE, Method: PREINCUBATION inactive; negative | Test System: E.COLI, Strain/Indicator: WP2UVRA/PKM101, Metabolic Activation: NONE, Method: PREINCUBATION inactive; negative | Test System: E.COLI, Strain/Indicator: WP2UVRA/PKM101, Metabolic Activation: RAT LIVER S-9, PHENOBARBITAL AND BETA-NAPHTHOFLAVONE, Method: PREINCUBATION inactive; negative

O=C(/C=C/c1ccc(-c2ccccc2)cc1)c1ccccc1
inactive: [5] inactive; negative | Test System: AMES SALMONELLA TYPHIMURIUM, Strain/Indicator: TA98, Metabolic Activation: RAT, LIVER, S-9, AROCLOR 1254, Method: STANDARD PLATE inactive; negative | [6] inactive; negative | Test System: AMES SALMONELLA TYPHIMURIUM, Strain/Indicator: TA100, Metabolic Activation: RAT, LIVER, S-9, AROCLOR 1254, Method: STANDARD PLATE inactive; negative

CC[C@@H](C)[C@@H](N)C(=O)OC
inactive: End Point: IN VIVO MICRONUCLEUS, Test System: BONE MARROW POLYCHROMATIC ERYTHROCYTES, Species: MOUSE, Strain/Sex: DDY/MALE, Route: IP inactive; negative

Cc1cc(O)c(C(C)(C)C)cc1Sc1cc(C(C)(C)C)c(O)cc1C
inactive: Test System: AMES SALMONELLA TYPHIMURIUM, Strain/Indicator: TA98, Metabolic Activation: HAMSTER, LIVER, S-9, AROCLOR 1254 (10%), Method: PREINCUBATION inactive; negative | [1] inactive; negative | [5] inactive; negative | [7] inactive; negative | Test System: AMES SALMONELLA TYPHIMURIUM, Strain/Indicator: TA98, Metabolic Activation: S-9, Method: STANDARD PLATE inactive; negative | Test System: AMES SALMONELLA TYPHIMURIUM, Strain/Indicator: TA100, Metabolic Activation: HAMSTER, LIVER, S-9, AROCLOR 1254 (10%), Method: PREINCUBATION inactive; negative | [2] inactive; negative | [6] inactive; negative | [8] inactive; negative | [9] inactive; negative | Test System: AMES SALMONELLA TYPHIMURIUM, Strain/Indicator: TA1535, Metabolic Activation: HAMSTER, LIVER, S-9, AROCLOR 1254 (10%), Method: PREINCUBATION inactive; negative | [3] inactive; negative | Test System: AMES SALMONELLA TYPHIMURIUM, Strain/Indicator: TA1535, Metabolic Activation: RAT, LIVER, S-9, AROCLOR 1254 (10%), Method: PREINCUBATION inactive; negative | Test System: AMES SALMONELLA TYPHIMURIUM, Strain/Indicator: TA1537, Metabolic Activation: HAMSTER, LIVER, S-9, AROCLOR 1254 (10%), Method: PREINCUBATION inactive; negative | [4] inactive; negative | Test System: AMES SALMONELLA TYPHIMURIUM, Strain/Indicator: TA1537, Metabolic Activation: RAT, LIVER, S-9, AROCLOR 1254 (10%), Method: PREINCUBATION inactive; negative

O=c1c2[nH]c3ccccc3c2nnn1/N=C/c1ccc(Cl)cc1
active: Test System: AMES SALMONELLA TYPHIMURIUM, Strain/Indicator: TA97, Metabolic Activation: RAT, LIVER, S-9, AROCLOR 1254 (10%), Method: PREINCUBATION active; positive | [1] active; positive | [7] active; positive | [8] active; positive
inactive: Test System: AMES SALMONELLA TYPHIMURIUM, Strain/Indicator: TA97, Metabolic Activation: NONE, Method: PREINCUBATION inactive; negative | [2] inactive; negative | Test System: AMES SALMONELLA TYPHIMURIUM, Strain/Indicator: TA102, Metabolic Activation: NONE, Method: PREINCUBATION inactive; negative | Test System: AMES SALMONELLA TYPHIMURIUM, Strain/Indicator: TA102, Metabolic Activation: RAT, LIVER, S-9, AROCLOR 1254 (10%), Method: PREINCUBATION inactive; negative

CCN(Cc1cccc(S(=O)(=O)O)c1)c1ccc(C(=C2C=CC(=[N+](CC)Cc3cccc(S(=O)(=O)[O-])c3)C=C2)c2ccc(S(=O)(=O)O)cc2)cc1
inactive: Test System: Mouse lymphoma, Strain/Indicator: L5178Y (tk+/tk-), Metabolic Activation: Rat, Liver, S-9, Aroclor 1254, Method: Suspension/plate inactive; negative
active: Test System: AMES SALMONELLA TYPHIMURIUM, Strain/Indicator: TA98, Metabolic Activation: HAMSTER, LIVER, S-9, AROCLOR 1254, Method: STANDARD PLATE active; positive | Test System: AMES SALMONELLA TYPHIMURIUM, Strain/Indicator: TA98, Metabolic Activation: HAMSTER, LIVER, S-9, Method: PREINCUBATION (PRIVAL METHOD) active; positive | Test System: AMES SALMONELLA TYPHIMURIUM, Strain/Indicator: TA100, Metabolic Activation: HAMSTER, LIVER, S-9, Method: PREINCUBATION (PRIVAL METHOD) active; positive | Test System: AMES SALMONELLA TYPHIMURIUM, Strain/Indicator: TA1538, Metabolic Activation: HAMSTER, LIVER, S-9, AROCLOR 1254, Method: STANDARD PLATE active; positive | Test System: Mouse lymphoma, Strain/Indicator: L5178Y (tk+/tk-), Metabolic Activation: None, Method: Suspension/plate active; positive

CCCCCCCC(=O)N=c1sn(C(=O)CCCCCCC)c2ccc([N+](=O)[O-])cc12
active: [9] active; positive

Cc1cc(/C=C/c2ccc3cc(N(C)C)ccc3[n+]2C)c(C)n1-c1ccccc1
active: Test System: AMES SALMONELLA TYPHIMURIUM, Strain/Indicator: TA98, Metabolic Activation: HUMAN, LIVER, S-9, Method: STANDARD PLATE active; positive | [1] active; positive | Test System: AMES SALMONELLA TYPHIMURIUM, Strain/Indicator: TA98, Metabolic Activation: RAT, LIVER, S-9, AROCLOR 1254, Method: PREINCUBATION active; positive | Test System: AMES SALMONELLA TYPHIMURIUM, Strain/Indicator: TA100, Metabolic Activation: HUMAN, LIVER, S-9, Method: STANDARD PLATE active; positive | [2] active; positive | Test System: AMES SALMONELLA TYPHIMURIUM, Strain/Indicator: TA100, Metabolic Activation: RAT, LIVER, S-9, AROCLOR 1254, Method: PREINCUBATION active; positive | Test System: AMES SALMONELLA TYPHIMURIUM, Strain/Indicator: UTH8414, Metabolic Activation: NONE, Method: PREINCUBATION active; positive | Test System: AMES SALMONELLA TYPHIMURIUM, Strain/Indicator: UTH8414, Metabolic Activation: RAT, LIVER, S-9, AROCLOR 1254, Method: PREINCUBATION active; positive
inactive: Test System: AMES SALMONELLA TYPHIMURIUM, Strain/Indicator: TA1535, Metabolic Activation: NONE, Method: STANDARD PLATE inactive; negative | Test System: AMES SALMONELLA TYPHIMURIUM, Strain/Indicator: TA1535, Metabolic Activation: RAT, LIVER, S-9, AROCLOR 1254, Method: STANDARD PLATE inactive; negative | Test System: AMES SALMONELLA TYPHIMURIUM, Strain/Indicator: TA1537, Metabolic Activation: NONE, Method: STANDARD PLATE inactive; negative | Test System: AMES SALMONELLA TYPHIMURIUM, Strain/Indicator: TA1537, Metabolic Activation: RAT, LIVER, S-9, AROCLOR 1254, Method: STANDARD PLATE inactive; negative | Test System: AMES SALMONELLA TYPHIMURIUM, Strain/Indicator: TA1538, Metabolic Activation: NONE, Method: STANDARD PLATE inactive; negative | Test System: AMES SALMONELLA TYPHIMURIUM, Strain/Indicator: UTH8413, Metabolic Activation: NONE, Method: PREINCUBATION inactive; negative

Cc1cccc2ccc([N+](=O)[O-])cc12
active: [1] active; positive
